# US12655185B2, “Peptide inhibitors of interleukin-23 and their use to treat inflammatory diseases” (Protagonist Therapeutics, Inc., priority 2016, dated 2026)
# Bridge positions count the residues as written; N and C are the ends. Peptide text beside a SMILES is read from it.
# Target: T1, IL-23 binding to IL23R_huFC (human IL-23R) (Homo sapiens, UniProt P29460+Q9NPF7)
# T1 sequence (Q9NPF7 20-189): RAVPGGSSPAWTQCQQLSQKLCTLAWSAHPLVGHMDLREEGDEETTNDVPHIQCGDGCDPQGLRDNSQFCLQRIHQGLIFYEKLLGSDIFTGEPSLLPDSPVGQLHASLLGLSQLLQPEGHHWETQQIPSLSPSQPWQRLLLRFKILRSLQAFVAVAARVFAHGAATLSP
# T1 sequence (P29460 23-328): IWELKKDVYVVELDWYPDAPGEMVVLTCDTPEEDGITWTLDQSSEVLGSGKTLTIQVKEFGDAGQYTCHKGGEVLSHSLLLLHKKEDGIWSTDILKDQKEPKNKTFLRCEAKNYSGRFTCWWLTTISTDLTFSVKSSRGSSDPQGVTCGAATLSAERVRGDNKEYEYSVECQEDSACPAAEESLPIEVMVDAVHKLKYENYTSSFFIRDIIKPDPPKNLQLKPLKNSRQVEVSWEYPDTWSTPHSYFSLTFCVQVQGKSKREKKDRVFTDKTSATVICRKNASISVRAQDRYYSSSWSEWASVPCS
# Experiment: IL23-IL23R Competitive Binding ELISA
# Conditions: not given
# Procedure: Immulon® 4HBX plate was coated with 200 ng/well of IL23R_huFC and incubated overnight at 4° C. […] Serial dilutions of test peptides and IL-23 at a final concentration of 0.9 nM diluted in PBS were added to each well and incubated for 2 hours at room temperature. After the wells were washed, bound IL-23 was detected by incubation with 50 ng/well of goat anti-p40 polyclonal antibodies (R&D Systems #AF309) diluted in PBS for 1 hour at room temperature. The wells were again washed four times with PBST. […] The plate was finally washed as above. Signals were visualized with TMB One Component HRP Membrane Substrate, quenched with 2 M sulfuric acid and read spectrophotometrically at 450 nm.
row,Structure (SMILES),IC50 [µM]
1,CC[C@H](C)[C@@H]1NC(=O)[C@H](CCCCN)NC(=O)[C@H](C)NC(=O)[C@H](CC(N)=O)NC(=O)[C@H](CCCNC(=N)N)NC(=O)[C@H](CCC(N)=O)NC(=O)[C@H](CCC(=O)O)NC(=O)[C@H](CCC(=O)O)NC(=O)[C@H](CC(N)=O)NC(=O)[C@H](CC(C)C)NC(=O)[C@H](CC(N)=O)NC(=O)[C@@H]2CCCN2C(=O)[C@H](CC(=O)O)NC(=O)[C@H](C)NC(=O)[C@H](C)NC(=O)[C@H](C)NC(=O)[C@H](CO)NC(=O)[C@H](Cc2ccc(O)cc2)NC(=O)[C@H](Cc2ccccc2)NC(=O)[C@H](C)NC(=O)[C@H](CC(C)C)NC(=O)[C@H](CCC(N)=O)NC(=O)[C@@H](NC(=O)[C@H](Cc2ccccc2)NC(=O)[C@H](CCSC)NC(=O)[C@H](CC(N)=O)NC(=O)[C@H](Cc2ccccc2)NC(C)=O)CSSC[C@@H](C(N)=O)NC(=O)[C@H](CC(C)C)NC(=O)[C@H](CC(=O)O)NC(=O)[C@H](CCCNC(=N)N)NC(=O)[C@H](Cc2ccccc2)NC(=O)[C@H](CO)NC(=O)[C@H](CCCCN)NC1=O [Peptide 9] (Ac-FNMFCQLAFYSAAADPNLNEEQRNAKIKSFRDLC-NH2; disulfide 5-34),10 to 100

# Same assay, conditions: inhibition of IL-23/IL-23R binding; IL-23 0.9 nM; class symbols; read-out: IC50 IL23R_huFC
row,Structure (SMILES),IC50 [µM]
1,CC[C@H](C)[C@@H]1NC(=O)[C@H](CCCNC(=N)N)NC(=O)[C@H](C)NC(=O)[C@H](CC(N)=O)NC(=O)[C@H](CCCNC(=N)N)NC(=O)[C@H](CC(=O)O)NC(=O)[C@H](CCC(=O)O)NC(=O)[C@H](CCC(=O)O)NC(=O)[C@H](CC(N)=O)NC(=O)[C@H](CC(C)C)NC(=O)[C@H](CC(N)=O)NC(=O)[C@@H]2CCCN2C(=O)[C@H](CC(N)=O)NC(=O)[C@H](C)NC(=O)[C@H](C)NC(=O)[C@H](C)NC(=O)[C@H](Cc2c[nH]c3ccccc23)NC(=O)[C@H](Cc2ccc(O)cc2)NC(=O)[C@H](Cc2ccccc2)NC(=O)[C@H](CC(C)C)NC(=O)[C@H](CCCNC(=N)N)NC(=O)[C@H](CCC(N)=O)NC(=O)[C@@H](NC(=O)[C@H](Cc2ccccc2)NC(=O)[C@H](CCSC)NC(=O)[C@H](CC(N)=O)NC(=O)[C@H](Cc2ccccc2)NC(C)=O)CSSC[C@@H](C(N)=O)NC(=O)CNC(=O)[C@H](CC(=O)O)NC(=O)[C@H](CCCNC(=N)N)NC(=O)[C@H](Cc2ccccc2)NC(=O)[C@H](CO)NC(=O)[C@H](CC(C)C)NC1=O [Peptide 3] (Ac-FNMFCQRLFYWAAANPNLNEEDRNARILSFRDGC-NH2; disulfide 5-34),10 to 100
2,CC[C@H](C)[C@@H]1NC(=O)CNC(=O)[C@H](C)NC(=O)[C@H](CCC(=O)O)NC(=O)[C@H](C(C)C)NC(=O)[C@H](CCSC)NC(=O)[C@H](CCCNC(=N)N)NC(=O)[C@H](CCCNC(=N)N)NC(=O)[C@H](CC(C)C)NC(=O)[C@@H](NC(=O)[C@H](CCC(N)=O)NC(=O)[C@H](CCSC)NC(=O)[C@H](CC(N)=O)NC(=O)[C@H](Cc2ccccc2)NC(C)=O)CSSC[C@@H](C(N)=O)NC(=O)[C@H](CC(=O)O)NC(=O)[C@H](CC(=O)O)NC(=O)[C@H](Cc2ccccc2)NC(=O)[C@H]([C@@H](C)CC)NC(=O)[C@H](CO)NC(=O)[C@H](CCCNC(=N)N)NC(=O)[C@H]([C@@H](C)CC)NC(=O)[C@H](CCCCN)NC(=O)[C@H](C)NC(=O)[C@H](Cc2c[nH]c3ccccc23)NC(=O)[C@H](CCCNC(=N)N)NC(=O)[C@H](CCC(N)=O)NC(=O)CNC(=O)[C@H](CO)NC(=O)[C@H](CC(N)=O)NC(=O)[C@H](CC(C)C)NC(=O)[C@H](CC(N)=O)NC(=O)[C@@H]2CCCN2C(=O)[C@H](CC(=O)O)NC1=O [Peptide 8] (Ac-FNMQCLRRMVEAGIDPNLNSGQRWAKIRSIFDDC-NH2; disulfide 5-34),10 to 100

# Second part, the compound after the results:
row,IC50 [µM],Structure (SMILES)
1,1 to 10,CC[C@H](C)[C@@H]1NC(=O)[C@H](CCCCN)NC(=O)[C@H](C)NC(=O)[C@H](Cc2c[nH]c3ccccc23)NC(=O)[C@H](CCCNC(=N)N)NC(=O)[C@H](CCC(N)=O)NC(=O)[C@H](CCC(=O)O)NC(=O)[C@H](CCC(N)=O)NC(=O)[C@H](CC(N)=O)NC(=O)[C@H](CC(C)C)NC(=O)[C@H](CC(N)=O)NC(=O)[C@@H]2CCCN2C(=O)[C@H](CC(=O)O)NC(=O)[C@H](C(C)C)NC(=O)CNC(=O)[C@H](C)NC(=O)[C@H](CCC(=O)O)NC(=O)[C@H](CO)NC(=O)[C@H](C)NC(=O)[C@H](CCCNC(=N)N)NC(=O)[C@H](CCCNC(=N)N)NC(=O)[C@H](CC(C)C)NC(=O)[C@@H](NC(=O)[C@H](CCC(N)=O)NC(=O)[C@H](CCSC)NC(=O)[C@H](CC(N)=O)NC(=O)[C@H](Cc2ccccc2)NC(C)=O)CSSC[C@@H](C(N)=O)NC(=O)[C@H](CC(=O)O)NC(=O)[C@H](CC(=O)O)NC(=O)[C@H](CCSC)NC(=O)[C@H]([C@@H](C)CC)NC(=O)[C@H](CO)NC(=O)[C@H](CCCCN)NC1=O [Peptide 12] (Ac-FNMQCLRRASEAGVDPNLNQEQRWAKIKSIMDDC-NH2; disulfide 5-34)
2,< 1,CC[C@H](C)[C@@H]1NC(=O)[C@H](CCCCN)NC(=O)[C@H](C)NC(=O)[C@H](Cc2c[nH]c3ccccc23)NC(=O)[C@H](CCCNC(=N)N)NC(=O)[C@H](CCC(N)=O)NC(=O)[C@H](CCC(=O)O)NC(=O)[C@H](CCC(N)=O)NC(=O)[C@H](CC(N)=O)NC(=O)[C@H](CC(C)C)NC(=O)[C@H](CC(N)=O)NC(=O)[C@@H]2CCCN2C(=O)[C@H](CC(=O)O)NC(=O)[C@H](C(C)C)NC(=O)CNC(=O)[C@H](C)NC(=O)[C@H](CCC(=O)O)NC(=O)[C@H](C)NC(=O)[C@H](CCSC)NC(=O)[C@H](CCCNC(=N)N)NC(=O)[C@H](CCCNC(=N)N)NC(=O)[C@H](CC(C)C)NC(=O)[C@@H](NC(=O)[C@H](CCC(N)=O)NC(=O)[C@H](CCSC)NC(=O)[C@H](CC(N)=O)NC(=O)[C@H](Cc2ccccc2)NC(C)=O)CSSC[C@@H](C(N)=O)NC(=O)[C@H](CC(=O)O)NC(=O)[C@H](CC(=O)O)NC(=O)[C@H](CCSC)NC(=O)[C@H]([C@@H](C)CC)NC(=O)[C@H](CO)NC(=O)[C@H](CCCCN)NC1=O [Peptide 13] (Ac-FNMQCLRRMAEAGVDPNLNQEQRWAKIKSIMDDC-NH2; disulfide 5-34)
3,1 to 10,CC[C@H](C)[C@@H]1NC(=O)[C@H](CCCCN)NC(=O)[C@H](C)NC(=O)[C@H](Cc2c[nH]c3ccccc23)NC(=O)[C@H](CCCNC(=N)N)NC(=O)[C@H](CCC(N)=O)NC(=O)[C@H](CCC(=O)O)NC(=O)[C@H](CCC(N)=O)NC(=O)[C@H](CC(N)=O)NC(=O)[C@H](CC(C)C)NC(=O)[C@H](CC(N)=O)NC(=O)[C@H](C)NC(=O)[C@H](CC(=O)O)NC(=O)[C@H](C(C)C)NC(=O)CNC(=O)[C@H](C)NC(=O)[C@H](CCC(=O)O)NC(=O)[C@H](CO)NC(=O)[C@H](CCSC)NC(=O)[C@H](CCCNC(=N)N)NC(=O)[C@H](CCCNC(=N)N)NC(=O)[C@H](CC(C)C)NC(=O)[C@@H](NC(=O)[C@H](CCC(N)=O)NC(=O)[C@H](CCSC)NC(=O)[C@H](CC(N)=O)NC(=O)[C@H](Cc2ccccc2)NC(C)=O)CSSC[C@@H](C(N)=O)NC(=O)[C@H](CC(=O)O)NC(=O)[C@H](CC(=O)O)NC(=O)[C@H](CCSC)NC(=O)[C@H]([C@@H](C)CC)NC(=O)[C@H](CO)NC(=O)[C@H](CCCCN)NC1=O [Peptide 16] (Ac-FNMQCLRRMSEAGVDANLNQEQRWAKIKSIMDDC-NH2; disulfide 5-34)
